Source: the NIST ThermoML archive (doi:10.1021/acs.jced.8b00213)

Assays:
[1] = xn = mol fraction of the nth substance listed; conditions: 100 kPa, Liquid, x1 = 0.25; for electrical conductivity: Alternating current cell with electrodes; for viscosity: Falling or rolling sphere viscometry; for speed of sound: Single path-length method; for mass density: Vibrating tube method
[2] = refractive index (Na D-line) (dimensionless); xn = mol fraction of the nth substance listed; conditions: 100 kPa, Liquid, Standard Abbe refractometry, x1 = 0.25

CCCC[N+](CCCC)(CCCC)Cc1ccccc1.[Cl-] [benzyltributylammonium chloride] + OCCO
Conditions | electrical conductivity, [1] [S/m] | mass density, [1] [kg/m3] | refractive index, [2] | speed of sound, [1] [m/s] | viscosity, [1] [mPa·s]
283.15 K | 0.03 | 1045.37 | 1.4993 | 1734.9 | 901.4
288.15 K | 0.039 | 1042.15 | 1.4979 | 1716.3 | 598.4
293.15 K | 0.048 | 1039 | 1.4963 | 1698.9 | 415.2
298.15 K | 0.064 | 1035.88 | 1.4947 | 1682.2 | 286
303.15 K | 0.081 | 1032.74 | 1.4932 | 1666.2 | 211
308.15 K | 0.099 | 1029.6 | 1.4917 | 1650.5 | 155.5
313.15 K | 0.122 | 1026.44 | 1.4901 | 1635.2 | 117.1
318.15 K | 0.148 | 1023.29 | 1.4886 | 1620.1 | 89.9
323.15 K | 0.181 | 1020.13 | 1.4871 | 1605.2 | 70.7
328.15 K | 0.219 | 1016.97 | 1.4855 | 1590.5 | 55.8
333.15 K | 0.262 | 1013.82 | 1.484 | 1576 | 43.6
338.15 K | 0.315 | 1010.67 | 1.4825 | 1561.7 | 34.9
343.15 K | 0.365 | 1007.53 | 1.4809 | 1547.9 | 28.1

C[N+](C)(C)Cc1ccccc1.[Cl-] [trimethylbenzylammonium chloride] + OCCO
Conditions | electrical conductivity, [1] [S/m] | mass density, [1] [kg/m3] | refractive index, [2] | speed of sound, [1] [m/s] | viscosity, [1] [mPa·s]
283.15 K | 0.263 | 1110.06 | 1.4995 | 1856.7 | 101.9
288.15 K | 0.32 | 1107 | 1.498 | 1843.6 | 76.1
293.15 K | 0.391 | 1103.95 | 1.4966 | 1830.8 | 58.2
298.15 K | 0.461 | 1100.92 | 1.4951 | 1818 | 45.3
303.15 K | 0.552 | 1097.89 | 1.4935 | 1805.3 | 35.9
308.15 K | 0.643 | 1094.87 | 1.4921 | 1792.7 | 29
313.15 K | 0.75 | 1091.85 | 1.4907 | 1780.2 | 23.9
318.15 K | 0.872 | 1088.84 | 1.4893 | 1767.8 | 19.9
323.15 K | 0.997 | 1085.83 | 1.4878 | 1755.4 | 16.8
328.15 K | 1.12 | 1082.83 | 1.4864 | 1743 | 14.3
333.15 K | 1.25 | 1079.82 | 1.4849 | 1730.7 | 12.3
338.15 K | 1.41 | 1076.82 | 1.4835 | 1718.5 | 10.7
343.15 K | 1.56 | 1073.83 | 1.482 | 1706.6 | 9.5

C[N+](C)(C)Cc1ccccc1.[Cl-] [trimethylbenzylammonium chloride] + OCCOCCOCCO
Conditions | electrical conductivity, [1] [S/m] | mass density, [1] [kg/m3] | refractive index, [2] | speed of sound, [1] [m/s] | viscosity, [1] [mPa·s]
283.15 K | 0.048 | 1127.45 | 1.4923 | 1776.2 | 620.1
288.15 K | 0.063 | 1124.08 | 1.4908 | 1761 | 470.8
293.15 K | 0.081 | 1120.7 | 1.4894 | 1746.2 | 370.5
298.15 K | 0.101 | 1117.31 | 1.488 | 1731.4 | 308.8
303.15 K | 0.124 | 1113.93 | 1.4865 | 1716.9 | 214.3
308.15 K | 0.152 | 1110.57 | 1.4849 | 1702.8 | 155.7
313.15 K | 0.187 | 1107.21 | 1.4836 | 1688.5 | 115.6
318.15 K | 0.226 | 1103.87 | 1.4821 | 1674.6 | 87.8
323.15 K | 0.278 | 1100.54 | 1.4807 | 1660.8 | 68.5
328.15 K | 0.325 | 1097.22 | 1.4792 | 1647.2 | 54.9
333.15 K | 0.377 | 1093.9 | 1.4778 | 1633.6 | 43.5
338.15 K | 0.44 | 1090.59 | 1.4763 | 1620.1 | 34.3
343.15 K | 0.506 | 1087.29 | 1.4749 | 1606.6 | 27.4
